In paper PMC5830761 (Royal Society Open Science, 2018):

What was measured:
[1] = molecular target: T1, human A3 receptor (Homo sapiens, UniProt P0DMS8); test: Competitive radioligand binding to human A3 AR ([125I]I-AB-MECA), CHO cell membranes; conditions: CHO cells expressing human A3AR; radioligand [125I]I-AB-MECA; mean ± SEM; read-out: Ki hA3AR
T1 construct: expressed in transfected cells; host or cells: CHO cells, membranes
T1 sequence (P0DMS8 1-318): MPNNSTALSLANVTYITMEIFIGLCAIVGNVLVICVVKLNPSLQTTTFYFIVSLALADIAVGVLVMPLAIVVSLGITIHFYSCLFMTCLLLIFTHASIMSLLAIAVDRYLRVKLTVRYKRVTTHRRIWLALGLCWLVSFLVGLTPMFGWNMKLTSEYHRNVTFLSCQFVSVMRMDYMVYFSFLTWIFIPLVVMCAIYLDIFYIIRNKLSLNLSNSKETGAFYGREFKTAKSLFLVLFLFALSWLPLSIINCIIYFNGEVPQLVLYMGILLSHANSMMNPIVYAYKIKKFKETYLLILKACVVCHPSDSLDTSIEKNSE
Experimental: (§1) CHO (Chinese hamster ovary) cells expressing the recombinant human ARs^2 were cultured in DMEM supplemented with 10% fetal bovine serum, 100 units/mL penicillin, 100 µg/mL streptomycin, 2 µmol/mL glutamine, and 800 µg/mL geneticin. Cells were harvested by trypsinization. After homogenization and suspension, cells were centrifuged at 500 g for 10 min, and the pellet was resuspended in 50 mM Tris-HCl buffer (pH 8.0) containing 10 mM MgCl2, 1 mM EDTA, and 0.1 mg/mL CHAPS. […] The protein concentration was measured using the Bradford assay.^3
Human A3 receptor: For competitive binding assay, each tube contained 100 µL of membrane suspension (20 µg protein), 50 µL of [^125I]I-AB-MECA (0.5 nM), and 50 µL of increasing concentrations of the nucleoside derivative in Tris-HCl buffer (50 mM, pH 7.4) containing 10 mM MgCl2 and 1 mM EDTA. Nonspecific binding was determined using 10 µM of Cl-IB-MECA in the buffer. The mixtures were incubated at 25 °C for 60 min. Binding reactions were terminated by filtration through Whatman GF/B filters under reduced pressure using a MT-24 cell harvester (Brandell, Gaithersburgh, MD). Filters were washed three times with 9 mL of ice-cold buffer. Radioactivity was determined in a Beckman 5500B γ-counter.

[2] = molecular target: T2, human A2A receptors (Homo sapiens, UniProt P29274); test: Radioligand binding to human A2A AR ([3H]CGS21680); conditions: cells expressing human A2AAR; radioligand [3H]CGS21680; mean ± SEM; read-out: Ki hA2AAR
T2 construct: expressed in transfected cells
Experimental: as §1, with “CHAPS. The suspension was homogenized with an electric homogenizer for 10 s and was then recentrifuged at 20000 g for 20 min at 4 °C.” for “CHAPS.”
(§2) Human A1 and A2A receptors: For binding to human A1 receptors, [^3H]CCPA (1 nM) was incubated with membranes (40 µg/tube) from CHO cells stably expressing human A1 receptors at 25 °C for 60 min in 50 mM Tris-HCl buffer (pH 7.4; MgCl2, 10 mM) in a total assay volume of 200 µL. Nonspecific binding was determined using 10 µM of CPA. For human A2A receptor binding, membranes (20 µg/tube) from HEK-293 cells stably expressing human A2A receptors were incubated with 15 nM [^3H]CGS21680 at 25 °C for 60 min in 200 µL of 50 mM Tris-HCl, pH 7.4, containing 10 mM MgCl2. NECA (10 µM) was used to define nonspecific binding. Reaction was terminated by filtration with GF/B filters.

[3] = molecular target: T3, human A1 receptors (Homo sapiens, UniProt P30542); test: Radioligand binding to human A1 AR ([3H]CCPA), CHO cell membranes; conditions: mean ± SEM; for Ki: CHO cells expressing human A1AR, radioligand [3H]CCPA, read-out: Ki hA1AR
T3 sequence (P30542 1-326): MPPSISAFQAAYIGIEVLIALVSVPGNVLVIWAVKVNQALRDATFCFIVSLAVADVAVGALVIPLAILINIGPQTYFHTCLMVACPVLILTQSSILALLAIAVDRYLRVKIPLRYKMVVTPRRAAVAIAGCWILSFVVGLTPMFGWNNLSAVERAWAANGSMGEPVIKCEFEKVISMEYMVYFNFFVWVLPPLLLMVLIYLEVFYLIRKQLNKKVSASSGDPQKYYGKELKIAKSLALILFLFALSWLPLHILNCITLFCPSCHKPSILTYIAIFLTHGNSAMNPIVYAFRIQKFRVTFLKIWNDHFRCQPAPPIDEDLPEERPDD
Experimental: as §1, with “CHAPS. The suspension was homogenized with an electric homogenizer for 10 s and was then recentrifuged at 20000 g for 20 min at 4 °C.” for “CHAPS.”
as §2

T2 sequence (P29274 whole entry): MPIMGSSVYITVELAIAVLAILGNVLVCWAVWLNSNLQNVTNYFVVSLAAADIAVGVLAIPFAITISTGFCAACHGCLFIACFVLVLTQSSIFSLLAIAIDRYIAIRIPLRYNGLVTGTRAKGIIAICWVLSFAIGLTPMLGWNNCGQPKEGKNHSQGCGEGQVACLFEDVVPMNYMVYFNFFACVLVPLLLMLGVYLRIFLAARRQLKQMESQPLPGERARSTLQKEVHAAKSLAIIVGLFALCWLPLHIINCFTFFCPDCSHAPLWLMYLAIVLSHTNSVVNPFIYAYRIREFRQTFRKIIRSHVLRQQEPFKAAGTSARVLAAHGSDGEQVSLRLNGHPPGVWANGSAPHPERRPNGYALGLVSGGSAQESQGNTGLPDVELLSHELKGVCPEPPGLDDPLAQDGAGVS

SMILES | Ki [1] [nM] | Ki [2] [nM] | Ki [3] [nM] | inhibition at 10 µM ([3]; at 10 µM, weak binding, corresponding to IC50 ≥ 10 µM, [3H]CCPA, read-out: % inhibition at 10 µM hA1AR) [%]
Cn1cc(CCCOc2nc(N)c3ncn([C@@H]4O[C@H](CO)[C@@H](O)[C@H]4O)c3n2)c2ccc(Br)cc21 [compound 13, 2-(6"-Bromo-1"-Methyl-3"-indolylpropoxy)adenosine] | 177 ± 43 | 262 ± 192 | 230 ± 26 | –
Nc1nc(OCCCc2cn(Cc3ccccc3)c3cc(Br)ccc23)nc2c1ncn2[C@@H]1O[C@H](CO)[C@@H](O)[C@H]1O [compound 14, 2-(6"-Bromo-1"-Benzyl-3"-indolylpropoxy)adenosine] | 491 ± 143 | 371 ± 79 | 152 ± 49 | –
Nc1nc(OCCc2cn(Cc3ccccc3)c3cc(Br)ccc23)nc2c1ncn2[C@@H]1O[C@H](CO)[C@@H](O)[C@H]1O [compound 10] | 532 ± 144 | 380 ± 81 | 217 ± 57 | –
Cn1cc(CCOc2nc(N)c3ncn([C@@H]4O[C@H](CO)[C@@H](O)[C@H]4O)c3n2)c2ccc(Br)cc21 [compound 9] | 679 ± 149 | 2770 ± 500 | – | 47
